Laboratory results taken from patent EP0241291B1, “Aryl-substituted naphthyridine and pyridopyrazine derivatives” (SCHERING CORPORATION, priority 1986, dated 1987).

Columns and labels:
spleen weight = test: Splenic atrophy test, decrease in spleen weight; assay type: in vivo; details: BDF₁ mice
Description: The immunosuppressive activity of the compounds may also be shown by a decrease in spleen weight after dosing BDF₁ mice orally with the drug for seven (7) consecutive days. The mice are sacrificed on the eighth day. The percent decrease in spleen weight is measured for each dosage level. In this procedure (Compound A) provided a 30% spleen weight decrease at a dosage level of 100 mg/kg.

[1] = system: anaphylactic bronchospasm in sensitized guinea pigs; test: Inhibition of anaphylactic bronchospasm in sensitized guinea pigs with antigen-induced bronchoconstriction; assay type: in vivo, male Hartley guinea pigs; details: Cavia porcellus, po; for ED50: 2 hours before challenge with ovalbumin, sensitized guinea pigs, read-out: ED50 (p.o.)-in anaphylactic bronchospasm test
Description: The compounds of this invention may be employed as anti-allergy agents in the treatment of, for example, asthma, allergic or seasonal rhinitis, and/or chronic bronchitis. The anti-allergy method of this invention is identified by tests which measure a compound's inhibition of anaphylactic bronchospasm in sensitized guinea pigs having antigen induced broncho-constriction.
In one such test procedure, male Hartley guinea pigs (250-300 g) are sensitized with 5 mg ovalbumin injected i.p. and 5 mg injected s.c. in 1 ml saline on day 1 and 5 mg ovalbumin injected i.p. on day 4. The sensitized animals are used 3-4 weeks later at which time they weigh 450-500 g.
The sensitized guinea pigs are fasted overnight and the following morning are anesthetized with 0.9 ml/kg i.p. of dialurethane (0.1 g/ml diallybarbituric acid, 0.4 g/ml ethylurea and 0.4 g/ml urethane). The trachea are cannulated and the animals are ventilated by a Harvard® rodent respirator at 50 strokes/minute with a stroke volume of 5 ml. A side arm to the tracheal cannula is connected to a pressure transducer (Harvard) to obtain a continuous measure of intratracheal pressure which is recorded on a polygraph (Harvard). The jugular vein is cannulated for the i.v. administration of substances. The animals are challenged with antigen (0.5% ovalbumin) as an aerosol generated from a DeVilbiss® Model 65 ultrasonic nebulizer and delivered through the tracheal cannula for 30 seconds. Bronchoconstriction is measured as the peak increase in intratracheal pressure occurring within 5 minutes after antigen challenge.
The sensitized guinea pigs are injected i.v. with 1 mg/kg propranolol, 5 mg/kg indomethacin and 2 mg/kg mepyramine given together in a volume of 1 ml/kg. Fifteen minutes later the animals are challenged with nebulized ovalbumin. Test compounds are administered orally 2 hours before challenge with ovalbumin. Suppression of anaphylactic bronchospasm is expressed as a percent inhibition of the peak increase in intratracheal pressure by comparison to a vehicle-treated control group.

[2] = system: Reversed Passive Arthus Response; test: Reversed Passive Arthus Response (RPAR), paw volume; assay type: in vivo, Male Lewis inbred albino rats; details: 25 mg/kg p.o. once daily for 3 days, rats; for Percent Inhibition vs. Control at 2 hrs.: paw volume 2 hours post-challenge; for Percent Inhibition vs. Control at 4 hrs.: paw volume 4 hours post-challenge
Source text: The compounds of this invention are also useful for the treatment of inflammation. Thus, they are useful in the treatment of arthritis, bursitis, tendonitis, gout and other physical conditions characterized by inflammation.
Reversed Passive Arthus Response (RPAR) Animals, Materials and Methods
Male Lewis inbred albino rats weighing 180-200 grams obtained from Charles River Breeding Laboratories are used in these experiments. The rats are housed 3 animals/cage and food and water are allowed ad libitum. The animals are numbered 1-3 in each cage and color marked for identification purposes.
All reagents and drugs are prepared just prior to the study. Crystallized and lyophilized bovine serum albumin (BSA), available from Sigma Chemical Company, is solubilized without shaking in cold, sterile, pyrogenfree saline (10 mg/ml). Lyophilized anti-bovine serum albumin (IgG fraction), obtained from Cappel Laboratories, is suspended in sterile distilled water and diluted with cold, pyrogen-free saline (PFS) just prior to use. The final concentration of anti-bovine serum albumin is 0.5. mg/ml of PFS. Both BSA and anti-BSA solutions are iced during use. Drugs are suspended or solubilized in an aqueous solution of methyl cellulose (MC) with an homogenizer just prior to administration.
Groups of animals (6/group) are dosed with drug in MC by gavage once daily for 3 days. The last dose is administered one hour prior to sensitization with BSA. Controls are given MC alone and a drug-standard is usually included in each assay for verification purposes. Drugs are prepared and diluted so as to provide a dose for a 200 gram animal which is equivalent to the mg/kg dose for each experiment. Thus each rat receives an oral dose in a volume of approximately 2.0 cc. One hour after the last dose the animals are lightly anesthetized with ether and "sensitized" by injection of 0.2 ml of PFS containing 1.0 mg of BSA into the penile vein. One hour later, the animals are "challenged" in the right rear paw with subplantar injections of […] PFS containing 0.1 mg of anti-BSA. Immediately after the subplantar injection, the right paw is dipped (up to the lateral maleolus) into the mercury well of a plethysmograph. The volume of mercury displaced is converted to weight and recorded. This value is considered to be the control reading for the animal. Paw volumes are subsequently recorded with a plethysmograph during the development of the inflammation at 2 and 4 hours post-challenge.
Results are expressed by the change in paw volume (Δ paw volume) from the control reading for each animal to that recorded 2 and 4 hours post-challenge. All drug treated groups are compared to the MC control for significant differences with an analysis of variance. Differences from control in drug-treated groups are expressed as percent change from control in Table II.

[3] = system: reverse passive Arthus reaction in the pleural cavity of rats; test: Reverse passive Arthus reaction in the pleural cavity; assay type: in vivo; details: Rattus norvegicus, po, method of Myers et al., read-out: ED₅₀ reverse passive Arthus reaction in the pleural cavity
[4] = system: GRAFT VS. HOST REACTION (GVHR); test: Graft vs. host reaction (GVHR), spleen weight; assay type: in vivo, C57 B1/6XA/J(B6AF1) male mice; details: 10 mg/kg orally for 10 days; GVHR mice
Description: To induce a GVHR, C57 B1/6XA/J(B6AF1) male mice were injected intravenously with parental (C57B1/6J) spleen and lymph node cells. The compound 1,2,3,4-tetrahydro-7-phenyl-oxepino[2,3-c][1,8]-naphthyridin-6(7H)-one (Compound A) was then administered orally for 10 days beginning on the day prior to the cell transfer. On the day following the last treatment, the animals were sacrificed, and their spleens were excised and weighed. The enlargement of the spleen of the host is a result of a GVHR. To some extent it is the host's own cells which infiltrate and enlarge the spleen although they do this because of the presence of graft cells reacting against the host. The amount of spleen enlargement, splenonmegaly, is taken as a measure of the severity of the GVHR.
In carrying out the GVHR the animal in the experimental group is injected with parental cells, cells of the same species but of different genotyne, which cause a weight increase of the spleen. […] The effectiveness of Compound A adminstered to the mice in the experimental group is measured by comparing the spleen weight of the untreated and treated GVH animal with that of the syngeneic control. Compound A reduced spleen weight by 61% as compared to the untreated animals at a dose of 10 mg/kg.

O=c1c2c(c3cccnc3n1-c1ccccc1)CCCCO2 [Compound 4, 1,2,3,4-tetrahydro-7-phenyl-oxepino[2,3-c][1,8]-naphthyridin-6(7H)-one]
spleen weight decrease (spleen weight; 100 mg/kg orally for seven consecutive days): 30%
ED30 (spleen weight; Mus musculus, oral, seven consecutive days, read-out: ED₃₀ in the splenic atrophy test): ~100 mg/kg
ED50 [1]: 1 mg/kg
ED30 ([1]; sensitized guinea pigs having antigen-induced bronchoconstriction, read-out: ED₃₀ inhibition of anaphylactic bronchospasm): ~0.5 mg/kg
Percent Inhibition vs. Control at 2 hrs. [2]: 74%
Percent Inhibition vs. Control at 4 hrs. [2]: 25%
ED50 [3]: ~4.5 mg/kg
reduced spleen weight as compared to the untreated animals [4]: 61%

O=c1c2c(c3cccnc3n1-c1cccc(Cl)c1)CCCCO2 [Compound 3, 7-(3-Chlorophenyl)-1,2,3,4-tetrahydro-oxepino[2,3-c][1,8]-naphthyridin-6(7H)-one]
ED50 [1]: 5 mg/kg

O=c1c2c(c3cccnc3n1-c1cccc(Cl)c1)CCCC2 [Compound 1, 5-(3-Chlorophenyl)-7,8,9,10-tetrahydro-benzo[c][1,8]-naphthyridin-6(5H)-one]
ED50 [1]: 2 mg/kg
Percent Inhibition vs. Control at 2 hrs. [2]: 64%
Percent Inhibition vs. Control at 4 hrs. [2]: 30%

O=c1c2c(c3cccnc3n1-c1ccccc1)CCCC2 [Compound 2, 7,8,9,10-Tetrahydro-5-phenyl-benzo[c][1,8]-naphthyridin-6-(5H)-one]
ED50 [1]: 2 mg/kg
Percent Inhibition vs. Control at 2 hrs. [2]: 75%
Percent Inhibition vs. Control at 4 hrs. [2]: 29%
